Reference: patent US12551475B2, “Methods and compositions for treating RNA viral infections” (Model Medicines, Inc., priority 2020, dated 2026)
Structures can show the parent of a compound that is named as a salt. Where two headings read alike, the source gives them in different places.

Key:
MCF-7:C cells = settings: 10 nM; cited from earlier work
HepG2 2.2.15 cells = settings: cited from earlier work
HBV = settings: mouse, in vivo; cited from earlier work
hepatitis B virus (HBV) = settings: HepG2 2.2.15 cells infected with HBV; cited from earlier work
HIV-1 = settings: MT-4 cells; cited from earlier work
SIHA cells = settings: cited from earlier work
MCF-7 cells = settings: cited from earlier work
HCT116 cells = settings: cited from earlier work
Scaber cells = settings: cited from earlier work
COLO205 cells = settings: cited from earlier work
MKN45 cells = settings: cited from earlier work
[1] = molecular target: transient receptor potential canonical channel 5 (TRPC5) (Homo sapiens, UniProt Q9UL62); settings: cited from earlier work
[2] = molecular target: GABAA receptor α1 subunits (Homo sapiens, UniProt P14867); settings: cited from earlier work
MO-91 = settings: cited from earlier work
CUTO-3.29 = settings: cited from earlier work
[3] = system: tropomyosin-related kinases TrkA, TrkB, and TrkC; settings: cited from earlier work
KM12 = settings: cited from earlier work
[4] = molecular target: human acidic mammalian chitinase (Homo sapiens, UniProt Q9BZP6); settings: cited from earlier work
[5] = system: isolated peripheral blood mononuclear cells; settings: cited from earlier work
[6] = molecular target: lysophosphatidic acyl transferase (LPAAT); settings: LPS-activated LPAAT; read-out: IC50 (generation of phosphatidic acid); cited from earlier work
HIV-2 protease = HIV-2 protease (Human immunodeficiency virus type 2 subtype A, UniProt P04584); settings: cited from earlier work
[7] = 20 mg/kg saquinavir with 50 mg/kg ritonavir, mice; cited from earlier work
ACE2 = molecular target: T1, ACE2 (Homo sapiens, UniProt Q9BYF1); test: ACE2 activity assay; assay type: biochemical
T1 construct: purchased BPS Bioscience 79923 (assay kit)
Excerpt: The ACE2 Activity Assay described in this example is designed to measure the exopeptidase activity of ACE2 for screening and profiling applications. The ACE2 assay can be performed in a convenient 96-well format, with purified ACE2, its substrate, and ACE2 buffer for 96 reactions. See https://bpsioscience.com/ace2-inhibitor-screening-assay-kit-79923
ACE2, ACE2 Fluorogenic Substrate, ACE2 buffer, 96-well black microplate. Adjustable micropipettor and sterile tips and Fluorescent microplate reader.
All Samples and Controls were Tested in Duplicate.
• 1. Thawed ACE2 on ice. Upon first thaw, tube containing enzyme was briefly spun to recover full contents of the tube. Note: ACE2 is sensitive to freeze/thaw cycles. • 2. Prepared Enzyme solution (0.5 ng/μl ACE2) by diluting ACE2 in ACE2 Buffer. • 3. Added 20 μl of Enzyme solution (0.5 ng/μl ACE2) to each well designated “Positive Control” and “Test Inhibitor,” and 20 μl of ACE2 buffer to each well designated “Blank.” • 4. Added 5 μl of Test Inhibitor solution to each well designated “Test Inhibitor.” For the wells labeled “Positive Control” and “Blank,” added 5 μl of 10% DMSO in water (Inhibitor buffer). The final concentration of DMSO in the reaction was kept ≤1%. • 5. Added 25 μl of ACE2 Fluorogenic Substrate to all wells. Protected from light and reaction was incubated at room temperature for 60 minutes.
• 6. The fluorescence intensity of the samples (λexcitation=555 nm; λemission=585 nm) was read in an appropriate microplate reader. Data Analysis
All of the enzyme activity assays were performed in duplicates at each concentration. The fluorescent intensity data were analyzed using the computer software Graphpad Prism. In the absence of the compound, the fluorescent intensity (Ft) in each data set was defined as 100% activity. In the absence of the enzyme, the fluorescent intensity (Fb) in each data set was defined as 0% activity. The percent activity in the presence of each compound was calculated according to the following equation: % activity=(F−Fb)/(Ft−Fb), where F=the fluorescent intensity in the presence of the compound.
The values of percentage activity were plotted on a bar graph.

Notch signaling = settings: cited from earlier work
γ-secretase = settings: cited from earlier work
HIV aspartyl protease = HIV aspartyl protease (Human immunodeficiency virus type 1 group M subtype B, UniProt P04585); settings: cited from earlier work
[8] = system: HT-29 human colon adenocarcinoma cells; settings: read-out: IC50 (DNA damage); cited from earlier work
[9] = system: HT-29 human colon adenocarcinoma cells; settings: read-out: IC50 (cytotoxicity); cited from earlier work
[10] = molecular target: mitochondrial long-chain 3-ketoacyl thiolase (Homo sapiens, UniProt P55084); settings: cited from earlier work
mitochondrial long-chain 3-ketoacyl thiolase, sequence (P55084 34-474): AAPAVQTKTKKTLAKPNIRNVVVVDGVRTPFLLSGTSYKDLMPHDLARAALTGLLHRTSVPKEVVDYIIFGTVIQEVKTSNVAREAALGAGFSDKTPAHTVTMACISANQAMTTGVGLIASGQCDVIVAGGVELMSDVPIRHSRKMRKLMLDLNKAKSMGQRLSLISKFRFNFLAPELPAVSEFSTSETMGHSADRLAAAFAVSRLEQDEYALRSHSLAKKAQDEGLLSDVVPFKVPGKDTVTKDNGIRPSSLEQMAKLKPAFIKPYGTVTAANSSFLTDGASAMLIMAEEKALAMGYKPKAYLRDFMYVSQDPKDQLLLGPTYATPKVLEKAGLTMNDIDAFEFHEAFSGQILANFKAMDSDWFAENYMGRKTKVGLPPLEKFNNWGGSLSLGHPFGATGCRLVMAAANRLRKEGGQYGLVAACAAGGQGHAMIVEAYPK
mitochondrial long-chain 3-ketoacyl thiolase, sequence (P40939 37-763 partner): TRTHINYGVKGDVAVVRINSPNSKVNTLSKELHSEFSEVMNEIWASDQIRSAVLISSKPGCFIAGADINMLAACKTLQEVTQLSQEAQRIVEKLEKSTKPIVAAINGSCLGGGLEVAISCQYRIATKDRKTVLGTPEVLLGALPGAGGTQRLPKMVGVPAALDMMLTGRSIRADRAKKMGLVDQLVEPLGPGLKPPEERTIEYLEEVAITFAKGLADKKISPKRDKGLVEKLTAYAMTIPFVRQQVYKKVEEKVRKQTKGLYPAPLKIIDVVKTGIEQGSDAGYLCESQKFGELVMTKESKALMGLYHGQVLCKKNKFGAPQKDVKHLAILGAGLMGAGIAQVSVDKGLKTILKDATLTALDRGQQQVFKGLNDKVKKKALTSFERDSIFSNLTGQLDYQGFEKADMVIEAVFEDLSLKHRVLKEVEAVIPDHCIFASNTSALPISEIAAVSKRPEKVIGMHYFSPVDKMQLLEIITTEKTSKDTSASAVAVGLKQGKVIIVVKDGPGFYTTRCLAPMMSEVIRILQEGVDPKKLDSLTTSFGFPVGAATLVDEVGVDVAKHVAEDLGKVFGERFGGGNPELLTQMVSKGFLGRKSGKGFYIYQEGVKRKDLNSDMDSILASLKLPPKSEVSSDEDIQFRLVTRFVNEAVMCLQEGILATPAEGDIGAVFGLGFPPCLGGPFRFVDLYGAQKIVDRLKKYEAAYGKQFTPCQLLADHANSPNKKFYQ

T1 sequence (Q9BYF1 18-805): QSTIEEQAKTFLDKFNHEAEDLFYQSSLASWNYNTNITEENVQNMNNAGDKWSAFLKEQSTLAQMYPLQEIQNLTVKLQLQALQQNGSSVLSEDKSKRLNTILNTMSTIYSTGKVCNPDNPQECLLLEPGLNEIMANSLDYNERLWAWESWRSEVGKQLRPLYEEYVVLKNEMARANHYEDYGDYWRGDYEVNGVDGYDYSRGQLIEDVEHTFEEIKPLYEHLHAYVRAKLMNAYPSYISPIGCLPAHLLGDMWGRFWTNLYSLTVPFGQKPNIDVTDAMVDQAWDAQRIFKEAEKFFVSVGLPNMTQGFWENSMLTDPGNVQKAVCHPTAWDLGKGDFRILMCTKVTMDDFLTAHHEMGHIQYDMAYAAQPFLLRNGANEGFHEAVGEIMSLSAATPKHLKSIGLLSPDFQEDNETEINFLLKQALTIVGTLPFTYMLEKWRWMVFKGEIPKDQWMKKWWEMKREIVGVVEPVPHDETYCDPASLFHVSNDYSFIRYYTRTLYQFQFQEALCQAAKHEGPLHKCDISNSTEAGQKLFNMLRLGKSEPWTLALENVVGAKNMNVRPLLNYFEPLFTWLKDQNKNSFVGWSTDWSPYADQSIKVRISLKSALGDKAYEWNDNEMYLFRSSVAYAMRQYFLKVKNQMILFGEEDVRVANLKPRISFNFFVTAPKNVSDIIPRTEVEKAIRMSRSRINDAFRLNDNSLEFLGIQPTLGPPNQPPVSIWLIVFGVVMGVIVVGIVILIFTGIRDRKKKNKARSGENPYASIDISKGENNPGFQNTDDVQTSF
GABAA receptor α1 subunits, sequence (P14867 28-456): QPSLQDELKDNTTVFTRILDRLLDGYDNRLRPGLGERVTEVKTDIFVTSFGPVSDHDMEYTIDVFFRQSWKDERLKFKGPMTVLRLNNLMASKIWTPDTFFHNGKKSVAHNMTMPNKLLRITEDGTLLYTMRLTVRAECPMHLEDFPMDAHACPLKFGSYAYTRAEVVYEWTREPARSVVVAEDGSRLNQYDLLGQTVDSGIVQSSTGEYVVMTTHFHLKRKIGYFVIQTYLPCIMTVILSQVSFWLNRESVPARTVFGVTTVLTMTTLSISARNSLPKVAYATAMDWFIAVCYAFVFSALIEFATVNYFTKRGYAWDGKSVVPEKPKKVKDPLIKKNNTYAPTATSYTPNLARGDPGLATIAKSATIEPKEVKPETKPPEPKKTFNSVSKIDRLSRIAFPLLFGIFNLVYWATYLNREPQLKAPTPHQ
GABAA receptor α1 subunits, sequence (P47870 25-512 partner limits assumed): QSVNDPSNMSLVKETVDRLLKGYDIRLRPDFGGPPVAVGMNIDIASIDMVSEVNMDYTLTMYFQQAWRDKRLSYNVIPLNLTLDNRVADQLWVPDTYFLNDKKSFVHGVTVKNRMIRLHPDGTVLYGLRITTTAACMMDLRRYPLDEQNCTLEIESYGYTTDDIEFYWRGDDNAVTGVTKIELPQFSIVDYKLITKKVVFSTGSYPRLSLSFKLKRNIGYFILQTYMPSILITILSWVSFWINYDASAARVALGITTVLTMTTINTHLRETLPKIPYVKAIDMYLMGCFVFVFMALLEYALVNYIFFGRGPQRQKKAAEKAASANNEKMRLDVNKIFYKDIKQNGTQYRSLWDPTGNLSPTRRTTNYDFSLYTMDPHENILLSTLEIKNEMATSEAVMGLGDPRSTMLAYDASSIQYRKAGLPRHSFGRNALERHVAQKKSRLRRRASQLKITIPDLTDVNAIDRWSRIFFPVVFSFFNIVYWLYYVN
GABAA receptor α1 subunits, sequence (P18507 40-467 partner limits assumed): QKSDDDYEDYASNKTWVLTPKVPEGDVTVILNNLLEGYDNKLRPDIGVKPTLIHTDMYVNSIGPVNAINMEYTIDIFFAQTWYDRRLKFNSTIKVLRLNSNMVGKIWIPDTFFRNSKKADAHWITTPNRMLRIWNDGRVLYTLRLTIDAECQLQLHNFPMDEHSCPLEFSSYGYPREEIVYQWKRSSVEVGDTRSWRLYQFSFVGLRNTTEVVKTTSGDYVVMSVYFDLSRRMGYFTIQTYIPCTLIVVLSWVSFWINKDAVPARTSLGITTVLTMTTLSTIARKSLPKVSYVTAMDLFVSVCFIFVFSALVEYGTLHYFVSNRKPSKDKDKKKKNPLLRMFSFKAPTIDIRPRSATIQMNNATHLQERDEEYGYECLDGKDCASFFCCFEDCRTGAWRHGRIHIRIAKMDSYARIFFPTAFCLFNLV
human acidic mammalian chitinase, sequence (Q9BZP6 22-476): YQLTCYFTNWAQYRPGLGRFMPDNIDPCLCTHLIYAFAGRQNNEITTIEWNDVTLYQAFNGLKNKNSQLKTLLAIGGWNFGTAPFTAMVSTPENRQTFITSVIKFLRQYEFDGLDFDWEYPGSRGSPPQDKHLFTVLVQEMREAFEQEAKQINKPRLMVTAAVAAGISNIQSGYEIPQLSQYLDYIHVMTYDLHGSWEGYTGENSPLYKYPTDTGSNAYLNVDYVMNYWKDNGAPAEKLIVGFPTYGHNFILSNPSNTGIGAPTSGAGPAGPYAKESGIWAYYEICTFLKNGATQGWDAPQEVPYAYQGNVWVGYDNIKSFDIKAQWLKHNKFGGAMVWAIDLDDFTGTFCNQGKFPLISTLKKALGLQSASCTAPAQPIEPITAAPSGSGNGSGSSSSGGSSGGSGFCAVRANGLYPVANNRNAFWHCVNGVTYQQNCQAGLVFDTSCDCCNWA
transient receptor potential canonical channel 5 (TRPC5), sequence (Q9UL62 whole entry, species assumed): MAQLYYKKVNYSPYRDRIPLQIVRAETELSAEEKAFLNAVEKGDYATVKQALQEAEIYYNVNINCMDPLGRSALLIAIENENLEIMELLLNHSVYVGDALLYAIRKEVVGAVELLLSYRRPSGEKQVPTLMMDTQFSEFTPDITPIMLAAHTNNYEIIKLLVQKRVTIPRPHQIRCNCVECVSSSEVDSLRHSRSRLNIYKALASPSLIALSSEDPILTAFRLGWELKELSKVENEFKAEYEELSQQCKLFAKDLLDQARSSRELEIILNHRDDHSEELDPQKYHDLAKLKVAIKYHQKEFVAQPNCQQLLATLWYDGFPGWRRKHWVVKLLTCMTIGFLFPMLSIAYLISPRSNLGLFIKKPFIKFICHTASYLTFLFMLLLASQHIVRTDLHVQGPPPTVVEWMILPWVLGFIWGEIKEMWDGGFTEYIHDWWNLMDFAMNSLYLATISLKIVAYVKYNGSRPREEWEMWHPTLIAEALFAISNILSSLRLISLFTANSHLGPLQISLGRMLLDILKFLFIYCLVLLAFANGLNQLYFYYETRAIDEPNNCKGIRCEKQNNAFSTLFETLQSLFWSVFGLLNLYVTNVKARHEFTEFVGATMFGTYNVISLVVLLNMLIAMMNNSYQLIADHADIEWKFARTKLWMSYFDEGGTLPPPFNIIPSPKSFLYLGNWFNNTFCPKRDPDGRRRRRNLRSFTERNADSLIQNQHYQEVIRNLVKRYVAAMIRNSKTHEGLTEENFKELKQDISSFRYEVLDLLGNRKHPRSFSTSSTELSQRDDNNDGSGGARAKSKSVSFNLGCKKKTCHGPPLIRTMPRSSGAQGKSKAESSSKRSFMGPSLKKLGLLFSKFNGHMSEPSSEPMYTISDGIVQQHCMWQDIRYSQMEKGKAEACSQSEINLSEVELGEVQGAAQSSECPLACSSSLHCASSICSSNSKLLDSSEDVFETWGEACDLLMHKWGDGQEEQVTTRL
HIV-2 protease, sequence (P04584 514-612 limits assumed): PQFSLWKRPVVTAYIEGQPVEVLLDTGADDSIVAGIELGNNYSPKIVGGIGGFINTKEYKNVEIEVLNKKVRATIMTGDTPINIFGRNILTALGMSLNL

1-[[4-[2-(hexahydro-1H-azepin-1-yl)ethoxy]phenyl]methyl]-2-(4-hydroxyphenyl)-3-methyl-1H-indol-5-ol, acetate [Bazedoxifene (acetate)]
reduction of growth (MCF-7:C cells): 80%

CC(C)(C)C(=O)OCOP(=O)(COCCn1cnc2c(N)ncnc21)OCOC(=O)C(C)(C)C [Adefovir dipivoxil, 2,2-dimethyl-propanoic acid, 1,1′-[[[[2-(6-amino-9H-purin-9-yl)ethoxy]methyl]phosphinylidene]bis(oxymethylene)]ester]
CC50 (HepG2 2.2.15 cells): 540 µM
ED50 (HBV): 0.2 μmol/kg per day
EC50 (hepatitis B virus (HBV)): 0.517 µM

CC(C)CN(C[C@@H](O)[C@H](Cc1ccccc1)NC(=O)O[C@H]1CCOC1)S(=O)(=O)c1ccc(N)cc1 [Amprenavir, N-[(1S,2R)-3-[[(4-aminophenyl)sulfonyl](2-methylpropyl)amino]-2-hydroxy-1-(phenylmethyl)propyl]-carbamic acid, (3S)-tetrahydro-3-furanyl ester]
IC50 (HIV-1): 0.15 µM

CCCCCOC(=O)Nc1nc(=O)n([C@@H]2O[C@H](C)[C@@H](O)[C@H]2O)cc1F [Capecitabine, 5′-deoxy-5-fluoro-N-[(pentyloxy)carbonyl]-cytidine]
IC50 (SIHA cells): 578 µM
IC50 (MCF-7 cells): > 1000 µM
IC50 (HCT116 cells): > 1000 µM
IC50 (Scaber cells): 97 µM
IC50 (COLO205 cells): > 1000 µM
IC50 (MKN45 cells): 994 µM

Clc1ccc(Cn2c(CN3CCCC3)nc3ccccc32)cc1 [Clemizole, 1-[(4-chlorophenyl)methyl]-2-(1-pyrrolidinylmethyl)-1H-benzimidazole, monohydrochloride]
IC50 [1]: 1 to 1.3 µM

CC(=O)N(C)c1cccc(-c2ccnc3c(C(=O)c4cccs4)cnn23)c1 [Indiplon, N-methyl-N-[3-[3-(2-thienylcarbonyl)pyrazolo[1,5-a]pyrimidin-7-yl]phenyl]-acetamide]
EC50 [2]: 0.0026 µM

O=C(Nc1cnn2ccc(N3CCC[C@@H]3c3cc(F)ccc3F)nc12)N1CC[C@H](O)C1 [LOXO-101, (3S)—N-[5-[(2R)-2-(2,5-difluorophenyl)-1-pyrrolidinyl]pyrazolo[1,5-a]pyrimidin-3-yl]-3-hydroxy-1-pyrrolidinecarboxamide]
IC50 (MO-91): < 0.01 µM
IC50 (CUTO-3.29): < 0.1 µM
IC50 [3]: 0.002 to 0.02 µM
IC50 (KM12): < 0.01 µM

CC(=O)CCCCn1c(=O)c2c(ncn2C)n(C)c1=O [Pentoxifylline, 3,7-dihydro-3,7-dimethyl-1-(5-oxohexyl)-1H-purine-2,6-dione]
IC50 [4]: 49 µM
IC50 [5]: 85 µM
IC50 [6]: 500 µM

CC(C)(C)NC(=O)[C@@H]1C[C@@H]2CCCC[C@@H]2CN1C[C@@H](O)[C@H](Cc1ccccc1)NC(=O)[C@H](CC(N)=O)NC(=O)c1ccc2ccccc2n1.CS(=O)(=O)O [Saquinavir, (2S)—N^1—[(1S,2R)-3-[(3S,4aS,8aS)-3-[[(1,1-dimethylethyl)amino]carbonyl]octahydro-2(1H)-isoquinolinyl]-2-hydroxy-1-(phenylmethyl)propyl]-2-[(2-quinolinylcarbonyl)amino]-butanediamide, monomethanesulfonate]
Ki (HIV-2 protease): < 0.0001 µM
increase of bioavailability [7]: 325 fold

CC(C)[C@H](O)C(=O)N[C@@H](C)C(=O)N[C@@H]1C(=O)N(C)CCc2ccccc21 [Semagacestat, (2S)-2-hydroxy-3-methyl-N-[(1S)-1-methyl-2-oxo-2-[[(1S)-2,3,4,5-tetrahydro-3-methyl-2-oxo-1H-3-benzazepin-1-yl]amino]ethyl]-butanamide]
ACE2 Activity (Fluorescence count) Repeat 1 (ACE2; Semagacestat 0.00586 μM, Repeat 1): 16794
activity at 0.00586 µM (ACE2; Semagacestat 0.00586 μM, Repeat 1, read-out: % Activity Repeat 1): 99%
ACE2 Activity (Fluorescence count) Repeat 2 (ACE2; Semagacestat 0.00586 μM, Repeat 2): 17665
activity at 0.00586 µM (ACE2; Semagacestat 0.00586 μM, Repeat 2, read-out: % Activity Repeat 2): 104%
ACE2 Activity (Fluorescence count) Repeat 1 (ACE2; Semagacestat 0.0117 μM, Repeat 1): 17480
activity at 0.0117 µM (ACE2; Semagacestat 0.0117 μM, Repeat 1, read-out: % Activity Repeat 1): 103%
ACE2 Activity (Fluorescence count) Repeat 2 (ACE2; Semagacestat 0.0117 μM, Repeat 2): 17772
activity at 0.0117 µM (ACE2; Semagacestat 0.0117 μM, Repeat 2, read-out: % Activity Repeat 2): 105%
ACE2 Activity (Fluorescence count) Repeat 1 (ACE2; Semagacestat 0.0234 μM, Repeat 1): 17334
activity at 0.0234 µM (ACE2; Semagacestat 0.0234 μM, Repeat 1, read-out: % Activity Repeat 1): 102%
ACE2 Activity (Fluorescence count) Repeat 2 (ACE2; Semagacestat 0.0234 μM, Repeat 2): 17846
activity at 0.0234 µM (ACE2; Semagacestat 0.0234 μM, Repeat 2, read-out: % Activity Repeat 2): 105%
ACE2 Activity (Fluorescence count) Repeat 1 (ACE2; Semagacestat 0.188 μM, Repeat 1): 16603
activity at 0.188 µM (ACE2; Semagacestat 0.188 μM, Repeat 1, read-out: % Activity Repeat 1): 97%
ACE2 Activity (Fluorescence count) Repeat 2 (ACE2; Semagacestat 0.188 μM, Repeat 2): 16796
activity at 0.188 µM (ACE2; Semagacestat 0.188 μM, Repeat 2, read-out: % Activity Repeat 2): 99%
activity at […] (ACE2; Semagacestat 0.75 μM, Repeat 1, read-out: % Activity Repeat 1): 85%
activity at […] (ACE2; Semagacestat 0.75 μM, Repeat 2, read-out: % Activity Repeat 2): 98%
activity at […] (ACE2; Semagacestat 1.5 μM, Repeat 1, read-out: % Activity Repeat 1): 78%
activity at […] (ACE2; Semagacestat 1.5 μM, Repeat 2, read-out: % Activity Repeat 2): 85%
effect on ACE2 activity (in words) (ACE2; test range 0.0029-1.5): inhibited ACE2 activity
IC50 (Notch signaling): 0.0141 µM
IC50 (γ-secretase; Aβ38, read-out: IC50 (production of Aβ38)): 0.012 µM
IC50 (γ-secretase; Aβ40, read-out: IC50 (production of Aβ40)): 0.0121 µM
IC50 (γ-secretase; Aβ42, read-out: IC50 (production of Aβ42)): 0.0109 µM

CCC[C@@]1(CCc2ccccc2)CC(O)=C([C@H](CC)c2cccc(NS(=O)(=O)c3ccc(C(F)(F)F)cn3)c2)C(=O)O1 [Tipranavir, N-[3-[(1R)-1-[(6R)-5,6-dihydro-4-hydroxy-2-oxo-6-(2-phenylethyl)-6-propyl-2H-pyran-3-yl]propyl]phenyl]-5-(trifluoromethyl)-2-pyridinesulfonamide]
Ki (HIV aspartyl protease): < 0.001 µM

CC[C@@]1(O)C(=O)OCc2c1cc1n(c2=O)Cc2cc3c(CN(C)C)c(O)ccc3nc2-1 [Topotecan, 10-[(dimethylamino)methyl]-4S-ethyl-4,9-dihydroxy-1H-pyrano[3′,4′:6,7]indolizino[1,2-b]quinoline-3,14(4H,12H)-dione, monohydrochloride]
IC50 [8]: 0.28 µM
IC50 [9]: 0.033 µM

COc1ccc(CN2CCNCC2)c(OC)c1OC [Trimetazidine (hydrochloride), 1-[(2,3,4-trimethoxyphenyl)methyl]-piperazine, dihydrochloride]
IC50 [10]: 0.075 µM
